Data on 13 compounds can be found in article PMC5824666, “The P-type ATPase inhibiting potential of polyoxotungstates” (Metallomics, 2018).

Where “and” joins values, the source holds several entries; their conditions need not be identical. Equal values may be shown once. Read-outs that look alike come from different tables or passages of the source.

Test [1] concerns Na^+/K^+-ATPase from basal membrane of opercular epithelium. The test can be described thus: Epithelial short circuit current (Isc) in Ussing chambers ex vivo, POT added basolaterally. The test is classed as cell-based, killifish (F. heteroclitus). The note with it: basolateral; for Maximum inhibition: % of basal Isc. An excerpt: Epithelial tissues can transport ions and generate a transepithelial voltage termed “active transport potential”, which is caused by the asymmetric distribution of ion channels and transporters on the apical and basolateral membranes. The net movement of charges from the apical to the basolateral side (and vice versa) generates a voltage equal to the voltage differences between the apical and basolateral membranes. Ex vivo, the short circuit current (Isc) is an accurate reflection of the secretory/absorptive capacity of the tissue when short-circuited. In the opercular epithelium of killifish used for our studies, Isc is a direct measure of apical chloride secretion mediated by chloride channels, which relies on an intact basolateral Na^+/K^+-ATPase function.[43],[44]
Methodology for the ex vivo opercular epithelia preparation followed our current methods.[45] Fish were anaesthetized with 2-phenoxyethanol (1 : 2000 v/v), sacrificed by decapitation and the cranium was cut longitudinally. The gills and other tissue remains were removed carefully and the epithelial skin covering the opercular bone were dissected out and transferred to fresh-gassed saline (99.7 : 0.3 O2/CO2) with the following composition (all values in mM): NaCl, 160; MgSO4, 0.93; NaH2PO4, 3.0; CaCl2, 1.5; NaHCO3, 17.85; KCl, 3.0; glucose, 5.5; HEPES (pH 7.8), 5.0. The epithelia were overlaid onto a thin bore polythene net, protected between two parafilm gaskets and pinned over the circular aperture of a tissue holder (P2410, 0.20 cm^2, Physiological Instruments, San Diego, USA), with the perimeter area lightly greased with vacuum silicone to minimize tissue edge damage. The mounted tissue was positioned between the two halves of the Ussing chamber (P2400, Physiological Instruments, San Diego, USA) with 4 mL of gassed saline at 22 °C and gassed with a 99.7 : 0.3 O2/CO2 mix to provide oxygenation, good mixing by gas lift and pH control (pH = 7.8).
The preparations were left to stand for at least 60 min or until a steady basal measurement of bioelectrical variables was achieved. Measurement of the short circuit current (Isc, μA cm^–2) was performed at symmetric conditions under voltage clamp to 0 mV. The open circuit potential (Vt, mV) and Isc were monitored by means of Ag/AgCl electrodes connected to the chambers by 3 mm bore agar bridges (1 M KCl in 3% agar). Clamping of epithelia to 0 mV and recording of Isc was performed by VCC600 voltage clamp amplifiers (Physiologic Instruments, San Diego, USA). Epithelial resistance (Rt, Ω cm^2) was manually calculated (Ohm's law) using the current deflections induced by bilateral 1 mV pulses of 3 s every minute. Bioelectrical data were continuously digitized through a Lab-Trax-4 (WPI, Sarasota, US) onto a Macbook laptop using Labscribe3 Software (Iworks systems, Dover, US). Upon signal baseline stabilization, freshly prepared POT solutions were added to the basal or the apical side of the chamber (Fig. 2) and the effects on the Na^+/K^+-ATPase from basal membrane or the chloride channel forming the apical membrane were followed for 60 to 90 minutes. The maximum inhibitory effect (in %) of the POTs on the ATPase activity and the effective time (ET50), which is the time necessary to reach 50% of the maximum effects (in minutes), was determined by measuring the % decrease of short circuit current (Isc, μA cm^–2) in the absence (100% activity) and presence of the POTs. All the experiments were performed at least in triplicates. Calculations of the ET50 and maximum effect values were performed using GraphPad Prism version 6.00 for Macintosh (GraphPad Software, La Jolla California USA).

Test [2] concerns the target T1, SR Ca^2+-ATPase (Oryctolagus cuniculus, UniProt P04191).
T1 construct: Isolated sarcoplasmic reticulum vesicles (SRVs), prepared from rabbit skeletal muscles as described elsewhere; from tissue; host or cells: rabbit skeletal muscle, sarcoplasmic reticulum vesicles
Details: method as in PMID 22178669. Conditions: cited from earlier work; for IC50: previously reported; for Type of inhibition of Ca^2+-ATPase: regarding the natural ligand MgATP.

The next test deals with Na^+/K^+-ATPase. Conditions: previous studies; cited from earlier work.
The target of test [3] is T1, SR Ca^2+-ATPase. Put plainly: Steady-state SR Ca2+-ATPase ATP hydrolysis, coupled pyruvate kinase/lactate dehydrogenase assay. The test is classed as biochemical, rabbit. Conditions: for Type of inhibition of Ca^2+-ATPase: Lineweaver-Burk, TeW6 at 100 μM; for IC50: SR vesicles from skeletal muscle, 25 °C, 2.5 mM ATP, calcimycin 4% (w/w). The method, then:
All reagents used for the preparation of the calcium pump vesicles were purchased from Sigma-Aldrich (Portugal). Isolated sarcoplasmic reticulum vesicles (SRVs), prepared from rabbit skeletal muscles as described elsewhere,[33] were suspended in 0.1 M KCl, 10 mM HEPES (pH 7.0), diluted 1 : 1 with 2.0 M sucrose and frozen in liquid nitrogen for storage at –80 °C. The protein concentration was determined spectrophotometrically at 595 nm in the presence of 0.125% of sodium dodecyl sulphate (SDS) by Bradford method with bovine serum albumin as a standard. The percentage of each protein present in the SRV preparations was determined by densitometry analysis of SDS-PAGE (7.5% acrylamide) protein bands. The SR Ca^2+-ATPase constituted at least 70% of the total protein amount in the SR-vesicles according to SDS-PAGE. The sarcoplasmic reticulum Ca^2+-ATPase-1 (SERCA-1) was the predominant isoform in our SR preparations.[42]
Steady-state assays of the SR Ca^2+-ATPase were measured spectrophotometrically at 25 °C using the coupled enzyme pyruvate kinase/lactate dehydrogenase assay (Scheme 1) as described elsewhere.[42] Briefly, after the addition of the enzymes (pyruvate kinase and lactate dehydrogenase) and the substrate phosphoenolpyruvate to the medium, the experiment was initiated by adding NADH (0.25 mM) and the vesicles containing Ca^2+-ATPase (10 μg mL^–1).
ATP (2.5 mM) was added and the absorbance was recorded for about 1 minute (basal activity). Afterwards, the calcium ionophore calcimycin 4% (w/w), which releases again the Ca^2+ ions, that were pumped in by the ATPase, was added and the decreasing NADH absorbance at 340 nm was measured for about 2 minutes (uncoupled ATPase activity). This was done to increase the ATPase activity (due to the ionophore-mediated impairment of the Ca^2+ gradient) in order to better study the effect of the inhibitors and to ensure that the SR Ca^2+-ATPase vesicles are not leaky. For the experiments including POTs, freshly prepared POT solutions (10 mM and 1 mM for all POTs except for Se2W29 1 mM and 0.1 mM) were added to the medium prior to the addition of SR Ca^2+-ATPase. The ATPase activity and its inhibition was measured taking into account the decrease of the OD (optical density) per minute in the absence (100%) and in the presence of the investigated POTs.[33] The detection system was not affected by the POTs themselves (not even at their highest concentrations), which was confirmed by a rapid decrease in absorbance at 340 nm upon addition of 40 μM ADP after the assay. All experiments were performed at least in triplicates. The inhibitory power of the investigated POTs was evaluated by determining the respective IC50 value, that is, the POT concentration needed to induce a 50% inhibition of the Ca^2+-ATPase enzyme activity.

T1 sequence (P04191 1-994 isoform P04191-2): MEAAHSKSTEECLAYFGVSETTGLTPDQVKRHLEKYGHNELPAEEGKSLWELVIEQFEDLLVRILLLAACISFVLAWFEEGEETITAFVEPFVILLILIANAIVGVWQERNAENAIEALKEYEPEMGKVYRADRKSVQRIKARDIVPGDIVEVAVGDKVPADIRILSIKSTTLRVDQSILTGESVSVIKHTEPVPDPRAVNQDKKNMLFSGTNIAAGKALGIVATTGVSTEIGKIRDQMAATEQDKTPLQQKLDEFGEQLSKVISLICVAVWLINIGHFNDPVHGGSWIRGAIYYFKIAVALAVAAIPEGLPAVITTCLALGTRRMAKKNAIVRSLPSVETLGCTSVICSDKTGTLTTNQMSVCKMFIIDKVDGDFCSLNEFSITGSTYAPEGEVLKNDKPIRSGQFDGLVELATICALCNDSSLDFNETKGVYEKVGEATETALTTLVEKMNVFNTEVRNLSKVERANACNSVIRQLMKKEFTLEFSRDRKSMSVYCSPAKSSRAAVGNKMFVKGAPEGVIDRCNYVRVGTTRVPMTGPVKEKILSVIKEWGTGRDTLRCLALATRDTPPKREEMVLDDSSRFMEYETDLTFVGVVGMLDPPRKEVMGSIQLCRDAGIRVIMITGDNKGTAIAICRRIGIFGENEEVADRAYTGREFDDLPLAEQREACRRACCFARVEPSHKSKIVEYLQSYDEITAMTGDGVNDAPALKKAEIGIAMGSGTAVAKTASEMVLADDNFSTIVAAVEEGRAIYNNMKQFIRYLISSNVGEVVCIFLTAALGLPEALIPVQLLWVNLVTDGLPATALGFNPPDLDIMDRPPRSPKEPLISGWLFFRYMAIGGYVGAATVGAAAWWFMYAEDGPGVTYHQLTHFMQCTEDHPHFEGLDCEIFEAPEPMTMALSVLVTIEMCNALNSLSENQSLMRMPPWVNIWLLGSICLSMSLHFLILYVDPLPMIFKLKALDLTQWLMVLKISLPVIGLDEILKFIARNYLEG

As to `C[C@@H]1O[C@@H](O[C@H]2C[C@@H](O)[C@]3(CO)[C@H]4[C@H](O)C[C@]5(C)[C@@H](C6=CC(=O)OC6)CC[C@]5(O)[C@@H]4CC[C@]3(O)C2)[C@H](O)[C@H](O)[C@H]1O` [Ouabain, reference compound], in test [1] (10 μM compound), the “ET50 (time to reach 50% of the maximum effect)” value was 3.2 ± 0.2 min and 3.2 min and 3.2 (10 μM) min; the Maximum inhibition was determined as 100%.

Broadly, the IC50 is the concentration needed to halve the response being measured. As to `[O]=[V]([O-])([O-])[O][V]1(=[O])[O][V]2(=[O])[O][V](=[O])([O][V](=[O])([O-])[O-])[O][V](=[O])([O]2)[O][V]2(=[O])[O][V](=[O])([O][V](=[O])([O-])[O-])[O][V](=[O])([O]1)[O]2` (stereo not shown) [V10, decavanadate], at SR Ca^2+-ATPase [2], the IC50 was 15 µM and the “Type of inhibition of Ca^2+-ATPase” value is “non-competitive”.

As to `[O]=[W](=[O])([OH])[OH]` [orthotungstate], the half-inhibitory concentration (IC50) on SR Ca^2+-ATPase [2] is 400 µM; at Na^+/K^+-ATPase, 1500 µM.

Regarding K6H2[TiW11CoO40]·13H2O [CoW11Ti], in test [1] (10 μM compound), the “ET50 (time to reach 50% of the maximum effect)” value is given as 10 (10 μM) min and the Maximum inhibition came to 75%.

With K6[α-P2W18O62]·14H2O, the “ET50 (time to reach 50% of the maximum effect)” value in test [1] (0.5 μM compound) is 8.2 (0.5 μM) min; in test [1] (1 μM compound) it was 6.5 (1 μM) min; in test [1] (10 μM compound), 4.3 (10 μM) min. Moreover, the Maximum inhibition is recorded as 86% in test [1] (0.5 μM compound); 99% in test [1] (1 μM compound, 1 µM); about 100% in test [1] (10 μM compound). The “Type of inhibition of Ca^2+-ATPase” value on SR Ca^2+-ATPase [3] is “mixed type of inhibition”.

For the compound K9(C2H8N)5[H10Se2W29O103]·30H2O, in test [1] (1 μM compound), the “ET50 (time to reach 50% of the maximum effect)” value is on record as 6.5 (1 μM) min and the Maximum inhibition came out at 14%.

As for K12[α-H2P2W12O48]·16H2O, the “Effect on ATPase activity after 30 minutes” value (“Effect on ATPase activity” for short) in test [1] (10 μM compound) was “no effect”. In addition, on SR Ca^2+-ATPase [3], the IC50 was found to be 11 µM.

On to K14[As2W19O67(H2O)]·23H2O, for which the “Effect on ATPase activity” value in test [1] (10 μM compound) was “no effect”. Also, the IC50 on SR Ca^2+-ATPase [3] was 28 µM.

Na6[TeW6O24]·22H2O: in test [1] (10 μM compound), the “ET50 (time to reach 50% of the maximum effect)” value is given as 60 (10 μM) min and the Maximum inhibition amounted to 10%. In addition, at SR Ca^2+-ATPase [3], the “Type of inhibition of Ca^2+-ATPase” value was “mixed type of inhibition” and the IC50 was 200 µM.

On to Na9[B-α-AsW9O33]·27H2O, for which, in test [1] (10 μM compound), the “ET50 (time to reach 50% of the maximum effect)” value is 8.5 min and 8.5 (10 μM) min; the Maximum inhibition amounted to 66%. Further, the IC50 at SR Ca^2+-ATPase [3] amounted to 20 µM.

As for Na10[A-α-SiW9O34]·16H2O, the “Effect on ATPase activity” value in test [1] (10 μM compound) was “no effect”. The IC50 on SR Ca^2+-ATPase [3] turned out to be 16 µM.

As for Na12[H4W22O74]·50H2O, the “Effect on ATPase activity” value in test [1] (10 μM compound) is “no effect”. Besides, the IC50 at SR Ca^2+-ATPase [3] was 68 µM.

In the case of decaniobate [Nb10], on SR Ca^2+-ATPase [2], the IC50 is 35 µM and the “Type of inhibition of Ca^2+-ATPase” value is “non-competitive”.
